The record followed here is BindingDB's records for patent US20240254114 (Merck Sharp & Dohme, 2024).

This test addresses T1, Diacylglycerol O-acyltransferase 2 (Homo sapiens, UniProt Q96PD7).
T1 sequence (Q96PD7 whole entry): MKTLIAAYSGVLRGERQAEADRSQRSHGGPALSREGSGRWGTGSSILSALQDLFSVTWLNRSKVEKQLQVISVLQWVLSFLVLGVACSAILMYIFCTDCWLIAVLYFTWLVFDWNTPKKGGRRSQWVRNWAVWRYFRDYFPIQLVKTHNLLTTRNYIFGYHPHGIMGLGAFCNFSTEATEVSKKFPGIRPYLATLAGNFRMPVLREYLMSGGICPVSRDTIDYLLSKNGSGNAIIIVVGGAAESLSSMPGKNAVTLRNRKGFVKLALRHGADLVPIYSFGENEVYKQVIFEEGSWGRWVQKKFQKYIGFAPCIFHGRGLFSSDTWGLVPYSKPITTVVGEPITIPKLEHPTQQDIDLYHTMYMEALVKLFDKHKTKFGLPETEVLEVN
Kind of test: DGAT2 Enzymatic Activity Assay. As to the method: DGAT2 activity was determined by measuring the amount of enzymatic product 13C18-triolein (13C-1,2,3-Tri(cis-9-octadecenoyl)glycerol) using the membrane prep mentioned above. The assay was carried out in ABgene 384-well assay plates in a final volume of 25 uL at rt.

In general, pIC50 refers to the negative decadic logarithm of the IC50, by convention in mol/L.

pIC50: −log10 of the molar value.

`O=C(NC1CN(C(=O)C(F)(F)F)C1)c1nc2ccc(Oc3ncc(Cl)cc3OCC(F)(F)F)cc2o1` [US20240254114, Example 8] showed a pIC50 of 5.99.
